Laboratory results as given in patent US20220009920A1 (GB005, Inc., priority 2020, published 2022).

How the values were obtained:
Assay in all cases: Large panel kinase profiling
Format in all cases: biochemical
Conditions in all cases: 1 μM test article, 1 mM ATP
ERN2 = ERN2 (Homo sapiens, UniProt Q76MJ5)
How it was run: (§1)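 Activity is measured in real time from the CSox sensor's fluorescence at 485 nm after 360 nm excitation, sampled every minute. Assays run at 30° C. with 1 mM ATP and a single 1 μM compound dose.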

FGFR2 = FGFR2 (Homo sapiens, UniProt P21802)
How it was run: as §1

HCK = molecular target: T1, HCK (Homo sapiens, UniProt P08631)
T1 construct: AssayQuant Technologies, Inc. (service provider)
How it was run: as §1

MAP3K11 = MAP3K11 (Homo sapiens, UniProt Q16584)
How it was run: as §1

MAP3K13 = molecular target: T2, MAP3K13 (Homo sapiens, UniProt O43283)
T2 sequence (O43283 1-966): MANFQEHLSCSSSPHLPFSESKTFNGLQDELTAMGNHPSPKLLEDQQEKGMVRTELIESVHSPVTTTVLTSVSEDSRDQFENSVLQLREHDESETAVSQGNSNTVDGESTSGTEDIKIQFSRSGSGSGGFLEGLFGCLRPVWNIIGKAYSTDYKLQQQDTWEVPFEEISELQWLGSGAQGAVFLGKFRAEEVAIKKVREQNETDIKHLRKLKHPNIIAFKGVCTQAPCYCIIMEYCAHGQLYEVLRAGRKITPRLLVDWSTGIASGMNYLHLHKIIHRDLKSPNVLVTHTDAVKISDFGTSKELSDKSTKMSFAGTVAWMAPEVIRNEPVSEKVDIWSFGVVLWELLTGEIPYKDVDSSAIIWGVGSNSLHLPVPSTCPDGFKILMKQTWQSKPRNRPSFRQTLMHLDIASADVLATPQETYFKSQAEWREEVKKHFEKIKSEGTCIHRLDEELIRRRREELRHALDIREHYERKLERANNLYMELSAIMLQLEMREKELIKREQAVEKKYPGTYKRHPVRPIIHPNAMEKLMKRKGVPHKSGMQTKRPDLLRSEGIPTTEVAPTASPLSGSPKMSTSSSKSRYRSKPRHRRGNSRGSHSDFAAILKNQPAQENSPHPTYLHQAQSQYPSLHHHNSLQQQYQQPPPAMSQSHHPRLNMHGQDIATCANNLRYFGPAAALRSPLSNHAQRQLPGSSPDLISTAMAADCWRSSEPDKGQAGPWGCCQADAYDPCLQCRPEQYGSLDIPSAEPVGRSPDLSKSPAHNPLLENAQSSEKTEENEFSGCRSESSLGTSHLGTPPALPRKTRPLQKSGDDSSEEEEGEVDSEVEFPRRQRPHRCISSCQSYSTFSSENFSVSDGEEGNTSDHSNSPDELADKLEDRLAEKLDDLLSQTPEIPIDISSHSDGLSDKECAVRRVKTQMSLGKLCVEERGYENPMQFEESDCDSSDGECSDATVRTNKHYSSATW
How it was run: as §1

MAP3K14 = MAP3K14 (Homo sapiens, UniProt Q99558)
How it was run: as §1

PIM2 = PIM2 (Homo sapiens, UniProt Q9P1W9)
How it was run: as §1

PRKD3 = molecular target: T3, PRKD3 (Homo sapiens, UniProt O94806)
T3 sequence (O94806 1-890): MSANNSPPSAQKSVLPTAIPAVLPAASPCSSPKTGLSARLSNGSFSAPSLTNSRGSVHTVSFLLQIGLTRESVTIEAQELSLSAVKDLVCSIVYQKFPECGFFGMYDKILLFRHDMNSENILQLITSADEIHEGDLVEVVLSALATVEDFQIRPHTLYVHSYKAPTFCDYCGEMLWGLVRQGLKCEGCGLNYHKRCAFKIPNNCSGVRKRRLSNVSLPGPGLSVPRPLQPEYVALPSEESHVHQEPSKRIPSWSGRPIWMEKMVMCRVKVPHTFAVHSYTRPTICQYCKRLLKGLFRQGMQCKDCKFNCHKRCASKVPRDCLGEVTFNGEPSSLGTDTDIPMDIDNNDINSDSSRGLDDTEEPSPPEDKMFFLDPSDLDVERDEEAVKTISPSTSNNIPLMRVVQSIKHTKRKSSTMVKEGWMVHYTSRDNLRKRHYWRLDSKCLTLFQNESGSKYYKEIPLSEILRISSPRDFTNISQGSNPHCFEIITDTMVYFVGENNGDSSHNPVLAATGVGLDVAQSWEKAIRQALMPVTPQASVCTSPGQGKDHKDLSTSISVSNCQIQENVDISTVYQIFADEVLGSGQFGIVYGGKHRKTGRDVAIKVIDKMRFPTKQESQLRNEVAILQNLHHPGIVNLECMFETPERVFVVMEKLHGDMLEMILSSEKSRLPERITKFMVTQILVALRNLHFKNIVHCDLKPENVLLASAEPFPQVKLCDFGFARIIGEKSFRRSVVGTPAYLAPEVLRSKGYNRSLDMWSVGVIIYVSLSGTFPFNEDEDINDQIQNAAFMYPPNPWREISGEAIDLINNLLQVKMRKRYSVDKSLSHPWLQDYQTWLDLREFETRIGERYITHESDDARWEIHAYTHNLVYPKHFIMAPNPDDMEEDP
How it was run: as §1

Sequence of FGFR2 (P21802 22-821, species assumed): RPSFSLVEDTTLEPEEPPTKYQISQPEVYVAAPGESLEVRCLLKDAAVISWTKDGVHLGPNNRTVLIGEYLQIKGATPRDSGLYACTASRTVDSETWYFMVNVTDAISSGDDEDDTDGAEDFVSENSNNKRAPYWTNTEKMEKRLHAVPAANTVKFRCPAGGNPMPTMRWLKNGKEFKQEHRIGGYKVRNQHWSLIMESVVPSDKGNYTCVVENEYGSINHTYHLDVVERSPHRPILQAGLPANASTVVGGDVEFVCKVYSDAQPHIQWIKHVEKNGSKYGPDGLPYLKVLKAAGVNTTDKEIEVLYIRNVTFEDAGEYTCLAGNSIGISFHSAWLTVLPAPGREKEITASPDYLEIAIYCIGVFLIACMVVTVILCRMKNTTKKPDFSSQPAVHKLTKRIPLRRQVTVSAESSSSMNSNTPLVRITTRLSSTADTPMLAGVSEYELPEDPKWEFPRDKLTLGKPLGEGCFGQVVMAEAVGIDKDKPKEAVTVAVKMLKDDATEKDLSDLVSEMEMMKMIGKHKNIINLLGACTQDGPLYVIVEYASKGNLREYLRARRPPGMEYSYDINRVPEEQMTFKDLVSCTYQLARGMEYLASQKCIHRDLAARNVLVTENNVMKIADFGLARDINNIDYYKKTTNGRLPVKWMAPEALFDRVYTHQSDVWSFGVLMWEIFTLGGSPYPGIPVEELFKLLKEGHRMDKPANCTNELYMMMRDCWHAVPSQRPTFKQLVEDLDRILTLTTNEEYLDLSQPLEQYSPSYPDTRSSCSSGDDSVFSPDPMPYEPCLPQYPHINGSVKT
Sequence of MAP3K11 (Q16584 whole entry, species assumed): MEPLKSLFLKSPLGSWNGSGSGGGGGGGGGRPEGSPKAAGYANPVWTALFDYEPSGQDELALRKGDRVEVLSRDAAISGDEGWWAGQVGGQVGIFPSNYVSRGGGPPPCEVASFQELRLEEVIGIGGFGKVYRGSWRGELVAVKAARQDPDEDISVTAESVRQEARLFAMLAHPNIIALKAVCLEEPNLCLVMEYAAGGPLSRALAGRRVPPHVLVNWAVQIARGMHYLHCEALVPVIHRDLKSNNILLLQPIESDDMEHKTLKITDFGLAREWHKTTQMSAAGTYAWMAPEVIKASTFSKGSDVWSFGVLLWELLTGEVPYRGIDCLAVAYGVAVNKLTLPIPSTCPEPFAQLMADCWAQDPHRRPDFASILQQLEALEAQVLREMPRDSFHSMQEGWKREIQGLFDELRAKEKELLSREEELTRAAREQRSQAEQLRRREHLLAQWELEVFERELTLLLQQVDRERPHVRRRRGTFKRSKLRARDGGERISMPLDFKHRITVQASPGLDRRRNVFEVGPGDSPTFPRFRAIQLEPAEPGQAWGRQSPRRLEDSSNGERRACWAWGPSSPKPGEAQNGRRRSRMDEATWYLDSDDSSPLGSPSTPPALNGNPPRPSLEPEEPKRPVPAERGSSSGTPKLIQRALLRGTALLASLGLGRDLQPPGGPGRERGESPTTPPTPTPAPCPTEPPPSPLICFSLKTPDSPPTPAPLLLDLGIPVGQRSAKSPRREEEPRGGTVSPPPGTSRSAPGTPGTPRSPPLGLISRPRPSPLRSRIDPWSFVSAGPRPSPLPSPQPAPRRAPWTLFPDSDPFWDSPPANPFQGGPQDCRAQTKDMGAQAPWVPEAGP
Sequence of PIM2 (Q9P1W9 whole entry, species assumed): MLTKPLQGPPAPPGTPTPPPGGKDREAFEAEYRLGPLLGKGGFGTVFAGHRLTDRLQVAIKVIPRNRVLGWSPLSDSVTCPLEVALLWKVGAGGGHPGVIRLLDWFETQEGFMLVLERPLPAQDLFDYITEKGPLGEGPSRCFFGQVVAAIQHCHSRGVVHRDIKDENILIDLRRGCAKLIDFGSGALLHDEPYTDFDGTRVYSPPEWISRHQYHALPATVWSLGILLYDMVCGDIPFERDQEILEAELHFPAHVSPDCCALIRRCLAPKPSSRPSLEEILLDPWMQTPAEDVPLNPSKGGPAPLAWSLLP
Sequence of ERN2 (Q76MJ5 35-926, species assumed): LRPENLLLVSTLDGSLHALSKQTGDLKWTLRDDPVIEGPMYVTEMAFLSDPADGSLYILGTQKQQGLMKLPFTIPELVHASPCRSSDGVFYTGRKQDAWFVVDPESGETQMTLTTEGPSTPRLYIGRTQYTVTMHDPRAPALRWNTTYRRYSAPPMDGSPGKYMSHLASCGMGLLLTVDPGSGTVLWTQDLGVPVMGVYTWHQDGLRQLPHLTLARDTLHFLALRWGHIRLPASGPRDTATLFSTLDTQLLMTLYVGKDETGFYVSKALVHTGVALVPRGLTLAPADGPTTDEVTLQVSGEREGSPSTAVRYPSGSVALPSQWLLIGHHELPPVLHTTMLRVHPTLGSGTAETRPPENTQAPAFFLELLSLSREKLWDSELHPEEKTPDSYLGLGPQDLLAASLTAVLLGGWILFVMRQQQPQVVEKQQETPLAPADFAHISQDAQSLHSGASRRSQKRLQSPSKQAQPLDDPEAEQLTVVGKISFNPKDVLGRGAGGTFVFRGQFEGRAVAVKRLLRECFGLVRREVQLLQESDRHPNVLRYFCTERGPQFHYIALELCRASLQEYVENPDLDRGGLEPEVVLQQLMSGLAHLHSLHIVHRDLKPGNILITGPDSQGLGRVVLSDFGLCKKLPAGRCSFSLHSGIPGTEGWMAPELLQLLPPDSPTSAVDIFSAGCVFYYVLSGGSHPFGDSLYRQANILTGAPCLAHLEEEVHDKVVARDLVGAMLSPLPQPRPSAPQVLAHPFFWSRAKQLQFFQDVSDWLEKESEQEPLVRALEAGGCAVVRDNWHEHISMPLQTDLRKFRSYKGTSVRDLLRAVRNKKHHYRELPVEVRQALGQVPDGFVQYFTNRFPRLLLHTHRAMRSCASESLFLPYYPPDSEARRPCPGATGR
T1 sequence (P08631 whole entry, species assumed): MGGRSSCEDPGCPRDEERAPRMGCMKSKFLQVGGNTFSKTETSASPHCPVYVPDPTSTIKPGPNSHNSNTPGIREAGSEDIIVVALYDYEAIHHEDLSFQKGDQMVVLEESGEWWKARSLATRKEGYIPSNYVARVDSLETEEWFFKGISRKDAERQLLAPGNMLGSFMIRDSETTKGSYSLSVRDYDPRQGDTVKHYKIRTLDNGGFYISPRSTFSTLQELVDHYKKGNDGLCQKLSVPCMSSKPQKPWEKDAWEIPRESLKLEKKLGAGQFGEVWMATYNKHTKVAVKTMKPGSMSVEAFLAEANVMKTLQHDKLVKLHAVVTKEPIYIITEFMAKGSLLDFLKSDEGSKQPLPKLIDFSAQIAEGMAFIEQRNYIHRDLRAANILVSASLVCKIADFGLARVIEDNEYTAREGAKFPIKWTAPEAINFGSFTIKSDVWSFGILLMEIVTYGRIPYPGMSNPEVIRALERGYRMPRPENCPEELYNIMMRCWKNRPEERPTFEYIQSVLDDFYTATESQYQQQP
Sequence of MAP3K14 (Q99558 whole entry, species assumed): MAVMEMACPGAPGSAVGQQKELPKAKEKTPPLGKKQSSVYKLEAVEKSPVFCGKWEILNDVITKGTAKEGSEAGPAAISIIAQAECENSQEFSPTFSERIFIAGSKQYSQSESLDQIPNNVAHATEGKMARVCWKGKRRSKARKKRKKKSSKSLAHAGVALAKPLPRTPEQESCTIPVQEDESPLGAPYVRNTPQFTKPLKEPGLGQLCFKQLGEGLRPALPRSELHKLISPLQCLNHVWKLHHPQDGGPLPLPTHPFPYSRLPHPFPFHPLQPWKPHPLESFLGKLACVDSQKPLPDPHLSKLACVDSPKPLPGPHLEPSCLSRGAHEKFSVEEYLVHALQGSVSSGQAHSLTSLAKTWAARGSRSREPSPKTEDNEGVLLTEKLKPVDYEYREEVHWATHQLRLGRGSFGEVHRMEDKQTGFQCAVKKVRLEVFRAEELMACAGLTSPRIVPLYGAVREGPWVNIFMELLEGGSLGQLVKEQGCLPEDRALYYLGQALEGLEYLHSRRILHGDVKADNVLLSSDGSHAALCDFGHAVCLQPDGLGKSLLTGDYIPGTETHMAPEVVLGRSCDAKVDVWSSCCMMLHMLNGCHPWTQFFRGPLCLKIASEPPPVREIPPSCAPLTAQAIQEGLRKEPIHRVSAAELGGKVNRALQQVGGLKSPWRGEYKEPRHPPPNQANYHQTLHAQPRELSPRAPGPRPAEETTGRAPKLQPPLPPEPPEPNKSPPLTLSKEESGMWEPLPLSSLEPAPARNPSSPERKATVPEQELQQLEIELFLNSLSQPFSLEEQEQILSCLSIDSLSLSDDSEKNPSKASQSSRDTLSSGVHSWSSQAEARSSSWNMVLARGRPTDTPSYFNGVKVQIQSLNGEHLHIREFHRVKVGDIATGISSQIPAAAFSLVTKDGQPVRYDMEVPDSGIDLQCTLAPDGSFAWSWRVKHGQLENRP

C=CC(=O)N1CCCC(c2c(F)cc(C(N)=O)c3[nH]c4c(c23)CCCCC4)C1 (single isomer, unassigned) [Compound 5-6]
inhibition at 1 µM (ERN2): -8%
inhibition at 1 µM (FGFR2): 17.7%
inhibition at 1 µM (HCK): 6.8%
inhibition at 1 µM (MAP3K11): 16%
inhibition at 1 µM (MAP3K13): 3.6%
inhibition at 1 µM (MAP3K14): 10.5%
inhibition at 1 µM (PIM2): 2.5%
inhibition at 1 µM (PRKD3): 4.4%

C=CC(=O)N1CCC[C@@H](c2c(F)cc(C(N)=O)c3[nH]c4c(c23)CC2(CC4)CC2)C1 [Compound 6-2, (S)-5-(1-acryloylpiperidin-3-yl)-6-fluoro-1,2,4,9-tetrahydrospiro[carbazole-3,1′-cyclopropane]-8-carboxamide]
inhibition at 1 µM (ERN2): -14.6%
inhibition at 1 µM (FGFR2): -15.3%
inhibition at 1 µM (HCK): 2.8%
inhibition at 1 µM (MAP3K11): 17.6%
inhibition at 1 µM (MAP3K13): 16.1%
inhibition at 1 µM (MAP3K14): -11.5%
inhibition at 1 µM (PIM2): 10.9%
inhibition at 1 µM (PRKD3): -62.4%

C=CC(=O)N1CCC[C@@H](c2c(F)cc(C(N)=O)c3[nH]c4c(c23)CCC4)C1 [Compound 10-2, (S)-8-(1-acryloylpiperidin-3-yl)-7-fluoro-1,2,3,4-tetrahydrocyclo-penta[b]indole-5-carboxamide]
inhibition at 1 µM (ERN2): -7.1%
inhibition at 1 µM (FGFR2): -3.5%
inhibition at 1 µM (HCK): -5.8%
inhibition at 1 µM (MAP3K11): -3.2%
inhibition at 1 µM (MAP3K13): 3.2%
inhibition at 1 µM (MAP3K14): -0.2%
inhibition at 1 µM (PIM2): 3.3%
inhibition at 1 µM (PRKD3): -65.4%
